Measured values as given in paper PMC12582325 (Proceedings of the National Academy of Sciences of the …, 2025).
Values joined by “and” are separate entries in the source; they are usually repeats but may differ in a detail not shown here. Equal entries are not always repeated. “Also recorded” adds a separate entry of the source. Where two headings read alike, the source gives them in different places. Where a SMILES comes first, the peptide text is derived from it.

Legend:
Bb.Ste2 [1] = assay type: cell-based, Beauveria bassiana; conditions: YPL1 library cocultured with Bb.Ste2 strain GEN88, 20 h, 2 d diploid enrichment, NextSeq 500
Fo.Ste2 [2] = assay type: cell-based, Fusarium oxysporum
Bc.Ste2 [3] = assay type: cell-based, Botrytis cinerea; conditions: 10 μM
Fg.Ste2 [4] = system: Fg.Ste2
Fg.Ste2 [5] = assay type: cell-based, Fusarium graminearum; conditions: Fg + Cm (Fg 0.5 μM, Cm 10 μM); Control mean 6548; mean of n = 4
Bc.Ste2 [6] = assay type: cell-based, Botrytis cinerea; conditions: YPL1 library cocultured with Bc.Ste2 strain GEN89, 20 h, 2 d diploid enrichment, NextSeq 500
Fo.Ste2 [7] = assay: Yeast GPCR biosensor, cognate agonist together with candidate antagonist Cm; assay type: cell-based, Fusarium oxysporum; conditions: Fo + Cm (Fo 0.5 μM, Cm 10 μM); Control mean 6141; mean of n = 4
Bc.Ste2 [8] = assay type: cell-based, Botrytis cinerea; conditions: for Bc.Ste2 (activation): with Bc agonist, normalised
Fg.Ste2 [9] = assay type: cell-based, Fusarium graminearum; conditions: YPL1 library cocultured with Fg.Ste2 strain GEN87, 20 h, 2 d diploid enrichment, NextSeq 500
[10] = system: no_GPCR (negative control lacking a GPCR); assay type: cell-based, Saccharomyces cerevisiae; conditions: SC + added peptide, individual replicates (n=3)
Bb.Ste2 [11] = assay type: cell-based, Beauveria bassiana
Bc.Ste2 [12] = assay type: cell-based, Botrytis cinerea
Fg.Ste2 [13] = assay type: cell-based, Fusarium graminearum; conditions: 10 μM; Control mean 6548; mean of n = 4
Fo.Ste2 [14] = assay type: cell-based, Fusarium oxysporum; remark: listed apart in the source
Fo.Ste2 [15] = assay: YeMaP Library-on-One: YPL1 pheromone library enrichment by mating, NGS; assay type: cell-based, Fusarium oxysporum; conditions: YPL1 library cocultured with Fo.Ste2 strain GEN90, 20 h, 2 d diploid enrichment, NextSeq 500
Hj.Hpr2 = assay type: cell-based, Hypocrea jecorina
Bb.Ste2 [16] = assay type: cell-based, Beauveria bassiana; conditions: Bb + Cm (Bb 0.0005 μM, Cm 10 μM); Control mean 6960; mean of n = 4
Bb.Ste2 [17] = assay type: cell-based, Beauveria bassiana; remark: listed apart in the source

CC(C)C[C@H](NC(=O)[C@H](CS)NC(=O)[C@@H](N)Cc1c[nH]c2ccccc12)C(=O)N[C@@H](CCCNC(=N)N)C(=O)N1CCC[C@H]1C(=O)NCC(=O)N[C@@H](CCC(N)=O)C(=O)N1CCC[C@H]1C(=O)N[C@@H](CS)C(=O)N[C@@H](Cc1c[nH]c2ccccc12)C(=O)O [Cm] (H-WCLRPGQPCW-OH; N-terminus and C-terminus assumed)
Enrichment after mating, reads per million minus library before coculture (Bb.Ste2 [1]): +7,508 RPM
Fold decline in diploids containing Fo.Ste2 (Fo.Ste2 [2]): 0.2 fold
Mean 2 (SC + peptide), Fo share of diploids (Fo.Ste2 [2]): 0.087
Mean Diff, SC vs. + peptide (Fo.Ste2 [2]; n = 3): 0.4046
Sup.Fig.3B Bc.Ste2 biosensor response, group mean (Bc.Ste2 [3]): 6819
barcode qPCR of diploids, Fg.Ste2 x Hj.Pheromone (Fg.Ste2 [4]; SC + added peptide, individual replicates (n=3), SC alone: 0.003, 0.004, 0.001): 0.028 and 0.017 and 0.029
barcode qPCR of diploids, Fg.Ste2 x Fo.Pheromone (Fg.Ste2 [4]; SC + added peptide, individual replicates (n=3), SC alone: 0.005, 0.005, 0.013): 0.014 and 0.066 and 0.033
barcode qPCR of diploids, Fg.Ste2 x no_Pheromone (Fg.Ste2 [4]; SC + added peptide, individual replicates (n=3), SC alone: 0.012, 0.001, 0.003): 0 and 0.143 and 0.133
barcode qPCR of diploids, Fg.Ste2 x Bb.Pheromone (Fg.Ste2 [4]; SC + added peptide, individual replicates (n=3), SC alone: 0.012, 0.009, 0.006): 0.032 and 0.042 and 0.028
barcode qPCR of diploids, Fg.Ste2 x Fg.Pheromone (Fg.Ste2 [4]; SC + added peptide, individual replicates (n=3), SC alone: 0.206, 0.237, 0.235): 0.441 and 0.282 and 0.373
Fold increase in diploids containing Fg.Ste2 (Fg.Ste2 [4]; consortium in SC media, 10 μM external peptide, three biological replicates): 2.2 fold
Sup.Fig.3B Fg.Ste2 biosensor response, group mean (Fg.Ste2 [5]): 219822
Enrichment after mating, reads per million minus library before coculture (Bc.Ste2 [6]): consistently lacking
Sup.Fig.3B Fo.Ste2 biosensor response, group mean (Fo.Ste2 [7]): 1377500
Effect on activation of Bc.Ste2 by Bc pheromone, in words (Bc.Ste2 [8]; 0.0005 μM Bc pheromone in combination with 10 μM peptide, four biological replicates, Fig. 2G): completely abolished
Sup.Fig.3B Bc.Ste2 biosensor response, group mean (Bc.Ste2 [8]; Bc + Cm (Bc 0.0005 μM, Cm 10 μM), Control mean 6719, mean of n = 4): 9961
Bc.Ste2 + pheromones, biosensor response, group mean (Bc.Ste2 [8]; Bc + the named peptide, Bc alone mean 134.8, mean of n = 4): 1.794
Hillslope (Bc.Ste2 [8]; Bc.Ste2 + Cm (antagonist), four-parameter fit, best-fit value): -289008
Excess of the antagonist compared to the agonist at IC50 (Bc.Ste2 [8]; Bc.Ste2, 0.0005 μM Bc pheromone): 2,000 fold
Bc.Ste2 (activation) (Bc.Ste2 [8]; Concentration 1e-6, replicate 1): 49.9332
Bc.Ste2 (activation) (Bc.Ste2 [8]; Concentration 1e-6, replicate 2): 46.5053
Bc.Ste2 (activation) (Bc.Ste2 [8]; Concentration 1e-6, replicate 3): 51.6445
Bc.Ste2 (activation) (Bc.Ste2 [8]; Concentration 1e-6, replicate 4): 48.6418
Bc.Ste2 (activation) (Bc.Ste2 [8]; Concentration 5e-6, replicate 1): 5.491
Bc.Ste2 (activation) (Bc.Ste2 [8]; Concentration 5e-6, replicate 2): 4.729
Bc.Ste2 (activation) (Bc.Ste2 [8]; Concentration 5e-6, replicate 3): 4.1657
Bc.Ste2 (activation) (Bc.Ste2 [8]; Concentration 5e-6, replicate 4): 2.595
Bc.Ste2 (activation) (Bc.Ste2 [8]; Concentration 1e-5, replicate 1): 1.904
Bc.Ste2 (activation) (Bc.Ste2 [8]; Concentration 1e-5, replicate 2): 1.546
Bc.Ste2 (activation) (Bc.Ste2 [8]; Concentration 1e-5, replicate 3): 1.924
Bc.Ste2 (activation) (Bc.Ste2 [8]; Concentration 1e-5, replicate 4): 1.801
Bc.Ste2 (activation) (Bc.Ste2 [8]; Concentration 1.00E-07, replicate 1): 86.3218
Bc.Ste2 (activation) (Bc.Ste2 [8]; Concentration 1.00E-07, replicate 2): 95.1098
Bc.Ste2 (activation) (Bc.Ste2 [8]; Concentration 1.00E-07, replicate 3): 89.2984
Bc.Ste2 (activation) (Bc.Ste2 [8]; Concentration 1.00E-07, replicate 4): 97.6612
Bc.Ste2 (activation) (Bc.Ste2 [8]; Concentration 1.00E-08, replicate 1): 96.9525
Bc.Ste2 (activation) (Bc.Ste2 [8]; Concentration 1.00E-08, replicate 2): 96.5273
Bc.Ste2 (activation) (Bc.Ste2 [8]; Concentration 1.00E-08, replicate 3): 99.5039
Bc.Ste2 (activation) (Bc.Ste2 [8]; Concentration 1.00E-08, replicate 4): 98.7952
Bc.Ste2 (activation) (Bc.Ste2 [8]; Concentration 1.00E-09, replicate 1): 101.063
Bc.Ste2 (activation) (Bc.Ste2 [8]; Concentration 1.00E-09, replicate 2): 96.9525
Bc.Ste2 (activation) (Bc.Ste2 [8]; Concentration 1.00E-09, replicate 3): 99.9291
Bc.Ste2 (activation) (Bc.Ste2 [8]; Concentration 1.00E-09, replicate 4): 101.063
Bc.Ste2 (activation) (Bc.Ste2 [8]; Concentration 5.00E-07, replicate 1): 78.8094
Bc.Ste2 (activation) (Bc.Ste2 [8]; Concentration 5.00E-07, replicate 2): 64.2098
Bc.Ste2 (activation) (Bc.Ste2 [8]; Concentration 5.00E-07, replicate 3): 79.0928
Bc.Ste2 (activation) (Bc.Ste2 [8]; Concentration 5.00E-07, replicate 4): 82.7782
Bc.Ste2 (activation) (Bc.Ste2 [8]; Concentration 5.00E-08, replicate 1): 94.4011
Bc.Ste2 (activation) (Bc.Ste2 [8]; Concentration 5.00E-08, replicate 2): 98.7952
Bc.Ste2 (activation) (Bc.Ste2 [8]; Concentration 5.00E-08, replicate 3): 96.9525
Bc.Ste2 (activation) (Bc.Ste2 [8]; Concentration 5.00E-08, replicate 4): 98.7952
Enrichment after mating, reads per million minus library before coculture (Fg.Ste2 [9]): consistently lacking
barcode qPCR of diploids, no_GPCR x Fg.Pheromone ([10]; SC alone: 0, 0, 0): 0 and 0.032 and 0.007
barcode qPCR of diploids, no_GPCR x Hj.Pheromone ([10]; SC alone: 0, 0, 0): 0 (2×) and 0.052
barcode qPCR of diploids, no_GPCR x Bb.Pheromone ([10]; SC alone: 0, 0, 0.004): 0 (2×) and 0.005
barcode qPCR of diploids, no_GPCR x Fo.Pheromone ([10]; SC alone: 0, 0, 0.007): 0.005 and 0 (2×)
barcode qPCR of diploids, no_GPCR x no_Pheromone ([10]; SC alone: 0.001, 0.001, 0): 0.027 and 0.026 and 0.002
Activation of Bb.Ste2 biosensor, in words (Bb.Ste2 [11]): triggered the activation
Sup.Fig.3B Bb.Ste2 biosensor response, group mean (Bb.Ste2 [11]; 10 μM): 1237500
Reduction in diploid formation (Bc.Ste2 [12]): two-fold reduction
Sup.Fig.3B Fg.Ste2 biosensor response, group mean (Fg.Ste2 [13]): 14826
Activation of Fo.Ste2 biosensor, in words (Fo.Ste2 [14]): triggered the activation; also recorded: agonists for Fo.Ste2
Hillslope (Fo.Ste2 [14]): 1.276
logEC50 (Fo.Ste2 [14]): -6.973
Sup.Fig.3B Fo.Ste2 biosensor response, group mean (Fo.Ste2 [14]; 10 μM): 1362500
Enrichment after mating, reads per million minus library before coculture (Fo.Ste2 [15]): consistently lacking
Mean 2 (SC + peptide), Hj share of diploids (Hj.Hpr2): 0.004151
barcode qPCR of diploids, Hj.HPR2 x Bb.Pheromone (Hj.Hpr2): 0
barcode qPCR of diploids, Hj.HPR2 x Fg.Pheromone (Hj.Hpr2): 0
barcode qPCR of diploids, Hj.HPR2 x no_Pheromone (Hj.Hpr2): 0
Mean Diff, SC vs. + peptide (Hj.Hpr2; n = 3): -0.002114
Sup.Fig.3B Bb.Ste2 biosensor response, group mean (Bb.Ste2 [16]): 1335000
Mean 2 (SC + peptide), Bb share of diploids (Bb.Ste2 [17]): 0.01767
barcode qPCR of diploids, Bb.Ste2 x Fo.Pheromone (Bb.Ste2 [17]): 0.04 and 0.041 and 0.037
barcode qPCR of diploids, Bb.Ste2 x no_Pheromone (Bb.Ste2 [17]): 0.037 and 0.028 and 0.049
Mean Diff, SC vs. + peptide (Bb.Ste2 [17]; n = 3): 0.02891
